The values below come from patent US20240294551A1 (AMGEN INC., priority 2022, published 2024).

The structures appear in SMILES notation. Where two headings read alike, the source gives them in different places.

In data set [1] the test system is p-ERK in PANC 04.03 tumor-bearing mice. Put plainly: Tumor Pharmacodynamic Assay (p-ERK inhibition in PANC 04.03 tumors). The class given is in vivo. To be noted: Mus musculus; PANC 04.03 tumor-bearing female athymic nude mice; single oral dose 100 mg/kg; tumors harvested 2 hr later; relative to vehicle group. The protocol: Tumor Pharmacodynamic Assays
Inhibitor pharmacodynamic effects were assessed in PANC 04.03 tumor-bearing mice. PANC 04.03 tumor cells (5.0E+06 cells) were injected subcutaneously into the flank of female athymic nude mice in a mixture with Matrigel (BD Bioscience). Mice received a single oral dose of either vehicle or inhibitor (100 mg/kg) when the average tumor size reached -300-600 mm^3 (n=3/group) and harvested 2 hours later. Tumor samples were collected, snap frozen, and processed for analysis by pulverizing with a cryoPREP® Dry Impactor (Covaris). Pulverized samples were resuspended in RIPA lysis buffer containing protease and phosphatase inhibitors and homogenized. Cleared lysates were analyzed using phospho-ERK1/2 and total ERK1/2 whole cell lysate kits (Meso Scale Discovery) according to the manufacturer's protocol. Phospho-ERK1/2 signal was normalized to total ERK1/2 signal for a given sample, and percent inhibition of p-ERK was calculated relative to the vehicle group.

The subject of the next data set is SW620 cells. Put plainly: SW620 CTG Assay (CellTiter-Glo cell viability). It counts as cell-based, human. As to conditions: Homo sapiens, SW-620; SW620, 72 h; third value of the cell; read-out: G12D/C/V Cell Proliferation CTG (72 h) SW620. Summed up: (§1)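 Human pancreatic AsPC-1 or colon SW620 cells in RPMI 1640 with 10% FBS, seeded overnight, then exposed to serially diluted compound for 72 h at 37 °C. CellTiter-Glo luminescence normalized to DMSO control; IC50 from a 4-parameter logistic model.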
For orientation: ATP-based viability assays read luminescence as a measure of living cells.

For another data set, the system named is MIA PaCa-2 cells. Put plainly: MIA PaCa-2 CTG Assay (CellTiter-Glo cell viability). It counts as cell-based, human. To be noted: Homo sapiens; Mia PaCa-2, 72 h; second value of the cell; read-out: G12D/C/V Cell Proliferation CTG (72 h) Mia PaCa-2. Summed up: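 Human pancreatic carcinoma cells in RPMI 1640 with 10% FBS, seeded at 1.67E+04 cells/mL and left overnight, were treated with serially diluted compound for 72 h at 37° C, 5% CO2. Viability was read by CellTiter-Glo luminescence normalized to DMSO; IC50 came from a 4-parameter logistic fit.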

Data set [2] concerns the target GDP-bound KRAS protein (aa 1-169), containing both G12D and C118A amino acid substitutions (Homo sapiens (Human), UniProt P01116, C118A/G12D). The data set can be described thus: KRAS G12D Coupled Nucleotide Exchange Assay. The class given is biochemical. As to conditions: read-out: KRAS G12D Coupled Exchange IC50.
Data set [3] concerns Phosphorylation of ERK1/2 in AsPC-1 cells. The data set can be described thus: Phospho-ERK1/2 MSD Assay. It counts as cell-based, human. To be noted: Homo sapiens, ASPC1, 2 h, read-out: 2 h p-ERK (AsPC-1 cells), IC50. Summed up: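 Read-out: MSD electrochemiluminescent detection of phosphorylated ERK1/2 in whole-cell lysates, fitted to a 4-parameter logistic curve for IC50. Prior to lysis, AsPC-1 cells (25,000 per well) received a 2 h compound dose-response at 37 °C.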

The target in data set [4] is His-tagged KRAS G12D protein (Homo sapiens (Human), UniProt P01116, G12D). Put plainly: KRAS G12D TR-FRET Assay. The class given is binding. To be noted: read-out: KRAS G12D Binding IC50. Summed up:
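His-tagged KRAS G12D (diluted to 20 nM in pH 7.4 HEPES buffer with 10 mM MgCl2 and 10 μM GDP) was preincubated with titrated compound for 30 min at room temperature. Biotinylated KRPep-2d peptide (diluted to 20 nM) was then added for 1 h, and displacement was monitored by TR-FRET.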
In general terms: Time-resolved FRET reads energy transfer from a long-lived donor to a nearby acceptor.

In a further data set the test system is AsPC-1 cells. The data set can be described thus: AsPC-1 CTG Assay (CellTiter-Glo cell viability). The class given is cell-based, human. As to conditions: Homo sapiens, ASPC1, 72 h, AsPC-1, 72 h; first value of the cell; read-out: G12D/C/V Cell Proliferation CTG (72 h) AsPC-1. Summed up:
as §1

Chain of His-tagged KRAS G12D protein (P01116 other isoform, or with tags, fused parts or gaps G12D): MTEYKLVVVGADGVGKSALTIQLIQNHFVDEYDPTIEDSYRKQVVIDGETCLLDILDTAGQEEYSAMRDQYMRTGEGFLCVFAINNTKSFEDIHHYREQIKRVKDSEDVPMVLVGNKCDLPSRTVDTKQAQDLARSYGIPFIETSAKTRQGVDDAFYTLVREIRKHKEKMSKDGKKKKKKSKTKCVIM
Chain of GDP-bound KRAS protein (aa 1-169), containing both G12D and C118A amino acid substitutions (P01116 other isoform, or with tags, fused parts or gaps G12D/C118A): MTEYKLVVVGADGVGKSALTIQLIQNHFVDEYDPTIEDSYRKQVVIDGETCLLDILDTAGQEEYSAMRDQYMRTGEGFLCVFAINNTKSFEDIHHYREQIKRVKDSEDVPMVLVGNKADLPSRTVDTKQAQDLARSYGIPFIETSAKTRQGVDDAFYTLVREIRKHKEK

As to `COCOc1cc2c3c(c(F)ccc3c1)CCCC(=O)N[C@]1(C)CCCN(C1)c1nc(OC)nc3c(F)c-2ncc13`, the ring closure, yield after HPLC (from COCOc1cc(-c2ncc3c(N4CCC[C@@](C)(N)C4)nc(OC)nc3c2F)c2c(CCCC(=O)O)c(F)ccc2c1, amide bond, 16-membered ring, HATU/DIEA, then HCl/dioxane, DMF, 8.3 mM, 25.0 °C, 2 steps) was found to be 5%.

For `CSc1nc2c3cnc(c(C)c3n1)-c1cc(O)cc3ccc(F)c(c13)CCCC(=O)N[C@]1(C)CCCN2C1`, where the note is “from CSc1nc(N2CCC[C@@](C)(N)C2)c2cnc(-c3cc(O)cc4ccc(F)c(CCCC(=O)O)c34)c(C)c2n1, amide bond, 16-membered ring, HATU, then Me2NH, DCM/DMA/DMF, 5.6 mM, 25.0 °C, 4.0 h”, the ring closure, yield after HPLC worked out at 32%.

Molecule `Fc1c2ncc3c(nc(OC[C@@]45CCCN4C[C@H](F)C5)nc13)N1CCCC3(CC(C3)OCCCCc3c(Cl)cc4[nH]ncc4c3-2)C1` displayed a ring closure, yield after HPLC (from Fc1c(-c2c(CCCCOC3CC4(CCCNC4)C3)c(Cl)cc3[nH]ncc23)ncc2c(OCC(F)(F)F)nc(OC[C@@]34CCCN3C[C@H](F)C4)nc12, snar bond, 17-membered ring, Cs2CO3, MeCN/DMF, 5.0 mM, 80.0 °C) of 5%.

The molecule `CN1CCC[C@H]1COc1nc2c3cnc(c(F)c3n1)-c1c(c(Cl)cc3[nH]ncc13)CCOC(=O)O[C@H]1C[C@]3(CCCN2C3)C1` (single isomer, unassigned) [Example 212] registered an inhibition in vivo at 100 mg/kg in data set [1] of 85%. For the same molecule, the IC50 in the data set on SW620 cells was determined as 20 nM; in the data set on MIA PaCa-2 cells, 24 nM; in data set [2], 3 nM; in data set [3] it was 5.3 nM; in data set [4], 4 nM; in the data set with AsPC-1 cells, 79 nM.

With `Cc1cc2[nH]ncc2c2c1CCCOC(=O)O[C@@H]1COCCN(C1)c1nc(OC[C@@]34CCCN3C[C@H](F)C4)nc3c(F)c-2ncc13` [Example 97, (26S)-32-fluoro-4-(((2R,7aS)-2-fluorotetrahydro-1H-pyrrolo[1,2-a]pyrrol-7a(5H)-yl)methoxy)-18-methyl-23,25,28-trioxa-1,3,5,9,14,15-hexaazahexacyclo[24.4.1.1~6,10~.0~2,7~.0~11,19~.0~12,16~]dotriaconta-2,4,6,8,10(32),11,13,16,18-nonaen-24-one], the inhibition in vivo at 100 mg/kg in data set [1] is 85%. Besides, the IC50 in the data set with SW620 cells is 20.8 nM; with MIA PaCa-2 cells it was 20 nM; in data set [2] it was 1 nM; in data set [3], 9 nM; in data set [4], 2 nM; in the data set on AsPC-1 cells, 80 nM.

In data set [1], `O=C1OCCCc2c(Cl)cc3[nH]ncc3c2-c2ncc3c(nc(OC[C@@]45CCCN4C[C@H](F)C5)nc3c2F)N2CCOC[C@H](C2)O1` [Example 99, (26S)-18-Chloro-32-fluoro-4-(((2R,7aS)-2-fluorotetrahydro-1H-pyrrolo[1,2-a]pyrrol-7a(5H)-yl)methoxy)-23,25,28-trioxa-1,3,5,9,14,15-hexaazahexacyclo[24.4.1.1˜6,10˜.0˜2,7˜.0˜11,19˜.0˜12,16˜]dotriaconta-2,4,6,8,10(32),11,13,16,18-nonaen-24-one] gave an inhibition in vivo at 100 mg/kg of 91%. The IC50 was determined as 10 nM in the data set with SW620 cells; 1 nM in the data set on MIA PaCa-2 cells; 2 nM in data set [2]; 2 nM in data set [3]; 3 nM in data set [4]; 30 nM in the data set on AsPC-1 cells.

In data set [1], `CN1CCC[C@H]1COc1nc2c3cnc(c(F)c3n1)-c1c(c(Cl)cc3[nH]ncc13)CCCOC(=O)O[C@]1(C)COCCN2C1` [Example 181, (26S)-18-chloro-32-fluoro-26-methyl-4-(((2S)-1-methyl-2-pyrrolidinyl)methoxy)-23,25,28-trioxa-1,3,5,9,14,15-hexaazahexacyclo[24.4.1.1~6,10~.0~2,7~.0~11,19~.0~12,16~]dotriaconta-2,4,6,8,10(32),11,13,16,18-nonaen-24-one] registered an inhibition in vivo at 100 mg/kg of 65%. In addition, the IC50 in the data set with SW620 cells amounted to 8 nM; in the data set on MIA PaCa-2 cells, 10 nM; in data set [2], 3 nM; in data set [3], 18.8 nM; in data set [4], 6 nM.

For the molecule `Cc1cc2[nH]ncc2c2c1CCCOC(=O)O[C@]1(C)COCCN(C1)c1nc(OC[C@@]34CCCN3C[C@H](F)C4)nc3c(F)c-2ncc13` [Example 190, (26S)-32-fluoro-4-(((2R,7aS)-2-fluorotetrahydro-1H-pyrrolo[1,2-a]pyrrol-7a(5H)-yl)methoxy)-18,26-dimethyl-23,25,28-trioxa-1,3,5,9,14,15-hexaazahexacyclo[24.4.1.1~6,10~.0~2,7~.0~11,19~.0~12,16~]dotriaconta-2,4,6,8,10(32),11,13,16,18-nonaen-24-one], the inhibition in vivo at 100 mg/kg in data set [1] amounted to 86%. Also, the IC50 in the data set with SW620 cells was found to be 4 nM; with MIA PaCa-2 cells, 4 nM; in data set [2] it was 2 nM; in data set [3] it was 4.5 nM; in data set [4], 4 nM; in the data set on AsPC-1 cells, 5 nM.

Consider `C[C@@]12COCCN(C1)c1nc(OC[C@@]34CCCN3C[C@H](F)C4)nc3c(F)c(ncc13)-c1c(c(Cl)cc3[nH]ncc13)CCCOC(=O)O2` [Example 191, (26S)-18-chloro-32-fluoro-4-(((2R,7aS)-2-fluorotetrahydro-1H-pyrrolo[1,2-a]pyrrol-7a(5H)-yl)methoxy)-26-methyl-23,25,28-trioxa-1,3,5,9,14,15-hexaazahexacyclo[24.4.1.1~6,10~.0~2,7~.0~11,19~.0~12,16~]dotriaconta-2,4,6,8,10(32),11,13,16,18-nonaen-24-one], for which, in data set [1], the inhibition in vivo at 100 mg/kg worked out at 91%. In addition, the IC50 was 2 nM with SW620 cells; 1 nM in the data set on MIA PaCa-2 cells; 2 nM in data set [2]; 1.9 nM in data set [3]; 3 nM in data set [4]; 8 nM in the data set on AsPC-1 cells.

As for `Cc1cc2[nH]ncc2c2c1CCOC(=O)O[C@H]1C[C@@]3(CCCN(C3)c3nc(OC[C@@]45CCCN4C[C@H](F)C5)nc4c(F)c-2ncc34)C1` [Example 194, (1S,3R)-32-fluoro-24-(((2R,7aS)-2-fluorotetrahydro-1H-pyrrolo[1,2-a]pyrrol-7a(5H)-yl)methoxy)-10-methyl-4,6-dioxa-13,14,19,23,25,27-hexaazaheptacyclo[25.3.1.1~1,3~.1~18,22~.0~9,17~.0~12,16~.0~21,26~]tritriaconta-9,11,14,16,18(32),19,21,23,25-nonaen-5-one], the inhibition in vivo at 100 mg/kg in data set [1] is 88%. The IC50 came to 4 nM in the data set on SW620 cells; 7 nM in the data set on MIA PaCa-2 cells; 3 nM in data set [2]; 1.3 nM in data set [3]; 5 nM in data set [4]; 6 nM in the data set on AsPC-1 cells.

`O[C@@H]1c2ncc(o2)CCc2c(Cl)cc3[nH]ncc3c2-c2ncc3c(nc(OC[C@@]45CCCN4C[C@H](F)C5)nc3c2F)N2CCC[C@@H]1C2` [Example 233]: in data set [1], at 100 mg/kg the inhibition in vivo was 23%. The IC50 with SW620 cells was 1 nM; in data set [2], 3 nM; in data set [3], 1 nM; in data set [4], 4 nM; in the data set with AsPC-1 cells, 2 nM.

In turn, `O=C1OCCc2c(Cl)cc3[nH]ncc3c2-c2ncc3c(nc(OC[C@@]45CCCN4C[C@H](F)C5)nc3c2F)N2CCC[C@]3(C2)C[C@H](C3)O1` [Example 249, (1S,3R)-10-chloro-32-fluoro-24-(((2R,7aS)-2-fluorotetrahydro-1H-pyrrolo[1,2-a]pyrrol-7a(5H)-yl)methoxy)-4,6-dioxa-13,14,19,23,25,27-hexaazaheptacyclo[25.3.1.1~1,3~.1~18,22~.0~9,17~.0~12,16~.0~21,26~]tritriaconta-9,11,14,16,18(32),19,21,23,25-nonaen-5-one] had an inhibition in vivo at 100 mg/kg in data set [1] of 90%. Besides, the IC50 with SW620 cells turned out to be 3 nM; in the data set with MIA PaCa-2 cells, 2 nM; in data set [2], 1 nM; in data set [3] it was 0.7 nM; in data set [4], 4 nM; in the data set with AsPC-1 cells, 5 nM.

Broadly, the inhibition in vivo is how much of the control response was suppressed. Low values mean a weak effect, high ones a strong effect.
